According to patent publication US20060148760A1, “Method for the sysnthesis of compounds of formula I and their uses thereof” (TransTech Pharma, priority 2000, published 2006):
Structures can show the parent of a compound that is named as a salt.

Columns and labels:
S-100b/RAGE interaction = target: T1, S-100b/RAGE interaction (Homo sapiens, UniProt Q15109); assay: ELISA assay, S-100b binding to sRAGE; details: plate-bound S100b, concentration at which 50% signal is inhibited
T1 construct: generate soluble RAGE (sRAGE) comprised of the V and C domains
T1 sequence (Q15109 23-342 limits assumed): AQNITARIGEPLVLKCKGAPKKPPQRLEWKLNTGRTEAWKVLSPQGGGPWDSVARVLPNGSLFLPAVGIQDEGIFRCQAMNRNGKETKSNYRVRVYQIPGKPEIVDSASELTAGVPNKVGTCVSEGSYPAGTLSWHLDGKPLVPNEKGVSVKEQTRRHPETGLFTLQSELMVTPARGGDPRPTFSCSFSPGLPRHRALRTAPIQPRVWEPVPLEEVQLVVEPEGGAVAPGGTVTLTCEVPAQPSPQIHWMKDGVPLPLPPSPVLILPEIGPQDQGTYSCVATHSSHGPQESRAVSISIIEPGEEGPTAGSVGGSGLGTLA
Description: (§1) S100b, β-amyloid and CML (500 ng/100 μL/well) in 100 mM sodium bicarbonate/sodium carbonate buffer (pH 9.8) is loaded onto the wells of a NUNC Maxisorp flat bottom 96—well microtitre plate. The plate is incubated at 4° C. overnight. The wells are aspirated and treated with 50 mM imidazole buffer saline (pH 7.2) (with 1 mM CaCl2/MgCl2) containing 1% bovine serum albumin (BSA) (300 μL/well) for two h at 37° C.
(§2) Test compounds are dissolved in nanopure water (concentration: 10-100 μM). DMSO may be used as co-solvent. 25 μL of test compound solution in 2% DMSO is added, along with 75 μL sRAGE (4.0×10^−4 mg/mL FAC) to each well and samples are incubated for 1 h at 37° C. The wells are washed 3 times with 155 mM NaCl pH 7.2 buffer saline and are soaked 10 seconds between each wash. Non-radioactive binding is performed by adding:
(§3) 10 μL Biotinylated goat F(ab′)2 Anti-mouse IgG. (8.0×10^−4 mg/mL, FAC)
(§4) 10 μL Alk-phos-Sterptavidin (3×10^−3 mg/mL FAC)
(§5) 10 μL Polyclonal antibody for sRAGE (FAC 6.0×10^−3 mg/mL) to 5 mL 50 mM imidazole buffer saline (pH 7.2) containing 0.2% bovine serum albumin and 1 mM CaCl2. The mixture is incubated for 30 minutes at 37° C. 100 μL complex is added to each well and incubation is allowed to proceed at rt for 1 h. Wells are washed 3 times with wash buffer and soaked 10 s between each wash. 100 μL 1 mg/mL (pNPP) in 1 M diethanolamine (pH adjusted to 9.8 with HCl) is added. […] The reaction is quenched with 10 μL of stop solution (0.5 N NaOH in 50% ethanol) and the absorbance is measured spectrophotometrically with a microplate reader at 405 nm.

[1] = target: T2, Carboxymethyl Lysine (CML)/RAGE interaction (Homo sapiens, UniProt Q15109); assay: ELISA assay, CML binding to sRAGE; details: plate-bound CML
T2 construct: generate soluble RAGE (sRAGE) comprised of the V and C domains
T2 sequence (Q15109 23-342 limits assumed): as above
Description: as §1, §2, §3, §4, §5

[2] = target: T3, β-amyloid—RAGE interaction (Homo sapiens, UniProt Q15109); assay: ELISA assay, β-amyloid binding to sRAGE; details: plate-bound β-amyloid
T3 construct: generate soluble RAGE (sRAGE) comprised of the V and C domains
T3 sequence (Q15109 23-342 limits assumed): as above
Description: as §1, §2, §3, §4, §5

Question: What does the source list for `CCCCOc1cc(C(=O)OC)ccc1NC(=O)[C@H](N)Cc1ccc2ccccc2c1` [Example 2, (R)-3-(2-Naphthyl)-2-aminopropionic Acid 4-Methoxycarbonyl-2-butoxyaniline Amide Hydrochloride]?
Answer: IC50 (S-100b/RAGE interaction): 5.1 µM; IC50 [1]: 3.16 µM

Question: For `CCCCOc1cc(C(=O)OCCN(CC)CC)ccc1NC(=O)[C@@H](Cc1ccc(OCc2ccccc2)cc1)NC(=O)OC(C)(C)C` [Example 3, (R)-3-(4-Benzyloxyphenyl)-2-tert-butoxycarbonylaminopropionic Acid 4-Diethylaminoethoxycarbonyl-2-butoxyaniline Amide], which IC50 (S-100b/RAGE interaction) is on record?
Answer: 1.32 µM

Question: And the IC50 [2]?
Answer: 1.5 µM

Question: And the IC50 [1]?
Answer: 1.5 µM

Question: What does the source list for `CCCCOc1cc(C(=O)OCCN(CC)CC)ccc1NC(=O)[C@H](N)Cc1ccc(OCc2ccccc2)cc1` [Example 4, (R)-3-(4-Benzyloxyphenyl)-2-aminopropionic Acid 4-Diethylaminoethoxycarbonyl-2-butoxyaniline Amide Dihydrochloride]?
Answer: IC50 (S-100b/RAGE interaction): 0.82 µM; IC50 [2]: 2.2 µM; IC50 [1]: 1.12 µM

Question: For `CCCCOc1cc(C(=O)OCCN(CC)CC)ccc1NC(=O)[C@@H](Cc1ccc2ccccc2c1)NC` [Example 5, (R)-3-(2-Naphthyl)-2-methylaminopropionic Acid 4-Diethylaminoethoxycarbonyl-2-butoxyaniline Amide Dihydrochloride], which IC50 (S-100b/RAGE interaction) is on record?
Answer: 2.88 µM

Question: And the IC50 [2]?
Answer: 1.81 µM

Question: What about the IC50 [1] of the same molecule?
Answer: 1.27 µM

Question: How did the IC50 (S-100b/RAGE interaction) turn out when `COC(=O)c1ccc(NC(=O)[C@@H](Cc2ccc(OCc3ccccc3)cc2)NC(=O)OC(C)(C)C)c(O)c1` [Example 6, (R)-3-(4-Benzyloxyphenyl)-2-tert-butoxycarbonylaminopropionic Acid 4-Methoxycarbonyl-2-hydroxyaniline Amide] was run?
Answer: 6.3 µM

Question: Which IC50 (S-100b/RAGE interaction) does the source give for `CC(C)(C)OC(=O)N[C@H](Cc1ccc(OCc2ccccc2)cc1)C(=O)Nc1ccc(C(=O)OC(C)(C)C)cc1OC(C)(C)C` [Example 7, (R)-3-(4-Benzyloxyphenyl)-2-tert-butoxycarbonylaminopropionic Acid 4-tert-Butoxycarbonyl-2-tert-butoxyaniline Amide] here?
Answer: 1 to 3 µM

Question: And the IC50 [1]?
Answer: 8 µM

Question: For `CCN(CC)CCOC(=O)c1ccc(NC(=O)[C@@H](Cc2ccc(OCc3ccccc3)cc2)NC(=O)OC(C)(C)C)c(OCC(C)C)c1` [Example 8, (R)-3-(4-Benzyloxyphenyl)-2-tert-butoxycarbonylaminopropionic Acid 4-Diethylaminoethoxycarbonyl-2-isobutoxyaniline Amide], which IC50 (S-100b/RAGE interaction) is on record?
Answer: 2 µM

Question: For `CCN(CC)CCOC(=O)c1ccc(NC(=O)[C@H](N)Cc2ccc(OCc3ccccc3)cc2)c(OCC(C)C)c1` [Example 9, (R)-3-(4-Benzyloxyphenyl)-2-aminopropionic Acid 4-Diethylaminoethoxycarbonyl-2-isobutoxyaniline Amide Dihydrochloride], which IC50 (S-100b/RAGE interaction) is on record?
Answer: 1.6 µM

Question: `CCCCOc1cc(C(=O)OCCN(CC)CC)ccc1NC(=O)[C@@H](Cc1ccccc1)NC(=O)OC(C)(C)C` [Example 10, (R)-3-Phenyl-2-tert-butoxycarbonylaminopropionic Acid 4-Diethylaminoethoxycarbonyl-2-butoxyaniline Amide] was tested. Which IC50 (S-100b/RAGE interaction) did it give?
Answer: 0.95 µM

Question: With `CCCCOc1cc(C(=O)OCCN(CC)CC)ccc1NC(=O)[C@H](N)Cc1ccccc1` [Example 11, (R)-3-Phenyl-2-aminopropionic Acid 4-Diethylaminoethoxycarbonyl-2-butoxyaniline Amide Dihydrochloride] as the molecule, how does the IC50 (S-100b/RAGE interaction) read?
Answer: 10 to 30 µM

Question: How did the IC50 (S-100b/RAGE interaction) turn out when `CCCCOc1cc(C(=O)OCCN(CC)CC)ccc1NC(=O)[C@@H](Cc1ccc(OCc2ccccc2)cc1)NC(C)C` [Example 13, (R)-3-(4-Benzyloxyphenyl)-2-isopropylaminopropionic Acid 4-Diethylaminoethoxycarbonyl-2-butoxyaniline Amide] was run?
Answer: 1 µM

Question: What about the IC50 [2] of the same molecule?
Answer: 1 µM

Question: And the IC50 [1]?
Answer: 0.7 µM

Question: How did the IC50 (S-100b/RAGE interaction) turn out when `CCCCOc1cc(C(=O)OCCN(CC)CC)ccc1NC(=O)[C@@H](Cc1ccc(OCc2ccccc2)cc1)NCc1ccccc1` [Example 14, (R)-3-(4-Benzyloxyphenyl)-2-benzylaminopropionic Acid 4-Diethylaminoethoxycarbonyl-2-butoxyaniline Amide] was run?
Answer: 2.8 µM

Question: With `CCCCOc1cc(C(=O)OCCN(CC)CC)ccc1NC(=O)[C@@H](Cc1ccc(OCc2ccccc2)cc1)NS(C)(=O)=O` [Example 15, (R)-3-(4-Benzyloxyphenyl)-2-methanesulfonylaminopropionic Acid 4-Diethylaminoethoxycarbonyl-2-butoxyaniline Amide] as the molecule, how does the IC50 (S-100b/RAGE interaction) read?
Answer: 10 to 30 µM

Question: For `CCCCOc1cc(C(=O)OCCN(CC)CC)ccc1NC(=O)[C@@H](Cc1ccc(OCc2ccccc2)cc1)NS(=O)(=O)c1ccccc1` [Example 16, (R)-3-(4-Benzyloxyphenyl)-2-phenylsulfonylaminopropionic Acid 4-Diethylaminoethoxycarbonyl-2-butoxyaniline Amide], which IC50 (S-100b/RAGE interaction) is on record?
Answer: 20 to 30 µM

Question: Which IC50 (S-100b/RAGE interaction) does the source give for `CCCCOc1cc(C(=O)OCCN(CC)CC)ccc1NC(=O)[C@@H](Cc1ccc(OCc2ccccc2)cc1)NC(=O)NCC` [Example 17, (R)-3-(4-Benzyloxyphenyl)-2-ethylcarbamoylaminopropionic Acid 4-Diethylaminoethoxycarbonyl-2-butoxyaniline Amide] here?
Answer: 10 µM

Question: Which results are given for `CCCCOc1cc(C(=O)OCCN(CC)CC)ccc1NC(=O)[C@@H](Cc1ccc(OCc2ccccc2)cc1)NC(=O)NC(C)(C)C` [Example 18, (R)-3-(4-Benzyloxyphenyl)-2-tert-butylcarbamoylaminopropionic Acid 4-Diethylaminoethoxycarbonyl-2-butoxyaniline Amide]?
Answer: IC50 (S-100b/RAGE interaction): 2.3 µM; IC50 [2]: 2 µM; IC50 [1]: 0.84 µM

Question: How did the IC50 (S-100b/RAGE interaction) turn out when `CCN(CC)CCOc1ccc(NC(=O)[C@@H](Cc2ccc(OCc3ccccc3)cc2)NC(=O)OC(C)(C)C)c(OCCN(CC)CC)c1` [Example 19, (R)-3-(4-Benzyloxyphenyl)-2-tert-butoxycarbonylaminopropionic Acid 4-Diethylaminoethoxy-2-diethylaminoethoxyaniline Amide] was run?
Answer: 1.14 µM

Question: What about the IC50 [2] of the same molecule?
Answer: 0.8 µM

Question: What about the IC50 [1] of the same molecule?
Answer: 0.8 µM

Question: Which results are given for `CCN(CC)CCCOc1ccc(NC(=O)[C@@H](Cc2ccc(OCc3ccccc3)cc2)NC(=O)OC(C)(C)C)c(OCCCN(CC)CC)c1` [Example 21, (R)-3-(4-Benzyloxyphenyl)-2-tert-butoxycarbonylaminopropionic Acid 4-(3-Diethylamino-1-propoxy)-2-(3-diethylamino-1-propoxy)aniline Amide]?
Answer: IC50 (S-100b/RAGE interaction): 0.64 µM; IC50 [2]: 1.23 µM; IC50 [1]: 0.46 µM

Question: Which IC50 (S-100b/RAGE interaction) does the source give for `CCN(CC)CCOC(=O)c1ccc(NC(=O)[C@@H](Cc2ccc(OCc3ccccc3)cc2)NC(=O)OC(C)(C)C)c(OCc2ccco2)c1` [Example 23, (R)-3-(4-Benzyloxyphenyl)-2-tert-butoxycarbonylaminopropionic Acid 4-Diethylaminoethoxycarbonyl-2-(2-furylmethoxy)aniline Amide] here?
Answer: 15.5 µM

Question: How did the IC50 (S-100b/RAGE interaction) turn out when `CCN(CC)CCOC(=O)c1ccc(NC(=O)[C@H](N)Cc2ccc(OCc3ccccc3)cc2)c(OCc2ccco2)c1` [Example 24, (R)-3-(4-Benzyloxyphenyl)-2-aminopropionic Acid 4-Diethylaminoethoxycarbonyl)-2-(2-furylmethoxy)aniline Amide Dihydrochloride] was run?
Answer: 2.7 µM

Question: With `CCCCOc1cc(C(=O)OCCN(CC)CC)ccc1NC(=O)[C@@H](Cc1ccc2ccccc2c1)NC(C)=O` [Example 25, (R)-3-(2-Naphthyl)-2-acetylaminopropionic Acid 4-Diethylaminoethoxycarbonyl-2-butoxyaniline Amide] as the molecule, how does the IC50 (S-100b/RAGE interaction) read?
Answer: 15 µM

Question: `CCCCOc1cc(C(=O)OCCN(CC)CC)ccc1NC(=O)[C@@H](Cc1ccc(OCc2ccccc2)cc1)NC(C)=O` [Example 26, (R)-3-(4-Benzyloxyphenyl)-2-acetylaminopropionic Acid 4-Diethylaminoethoxycarbonyl-2-butoxyaniline Amide] was tested. Which IC50 (S-100b/RAGE interaction) did it give?
Answer: 5.6 µM

Question: With “(R)-3-(2-Naphthyl)-2-guanidinylpropionic Acid 4-Diethylaminoethoxycarbonyl-2-butoxyaniline Amide Dihydrochloride [Example 12]” as the molecule, how does the IC50 (S-100b/RAGE interaction) read?
Answer: 0.3 to 1 µM

Question: What about the IC50 [2] of the same molecule?
Answer: 5 µM

Question: What about the IC50 [1] of the same molecule?
Answer: 0.7 µM

Question: Which IC50 (S-100b/RAGE interaction) does the source give for “(R)-3-(4-Benzyloxyphenyl)-2-aminopropionic Acid 4-(3-Diethylamino-1-propoxy)-2-(3-diethylamino-1-propoxyaniline Amide Trihydrochloride [Example 22]” here?
Answer: 0.92 µM

Question: And the IC50 [2]?
Answer: 1.73 µM

Question: And the IC50 [1]?
Answer: 0.68 µM

Question: How did the IC50 (S-100b/RAGE interaction) turn out when “(R)-3-(4-Benzyloxyphenyl)-2-aminopropionic Acid 4-Diethylaminoethoxy-2-diethylaminoethoxyaniline Amide Trihydrochloride [Example 20]” was run?
Answer: 0.84 µM

Question: What about the IC50 [2] of the same molecule?
Answer: 1 µM

Question: What about the IC50 [1] of the same molecule?
Answer: 1 µM
